According to ChEMBL document CHEMBL5291721, “A preclinical secondary pharmacology resource illuminates target-adverse drug reaction associations of marketed drugs” (Nat Commun, 2023):

Legend:
[1] = target: T1, Alpha-2A adrenergic receptor (Homo sapiens, UniProt P08913); format: functional, cell-based
T1 sequence (P08913 whole entry): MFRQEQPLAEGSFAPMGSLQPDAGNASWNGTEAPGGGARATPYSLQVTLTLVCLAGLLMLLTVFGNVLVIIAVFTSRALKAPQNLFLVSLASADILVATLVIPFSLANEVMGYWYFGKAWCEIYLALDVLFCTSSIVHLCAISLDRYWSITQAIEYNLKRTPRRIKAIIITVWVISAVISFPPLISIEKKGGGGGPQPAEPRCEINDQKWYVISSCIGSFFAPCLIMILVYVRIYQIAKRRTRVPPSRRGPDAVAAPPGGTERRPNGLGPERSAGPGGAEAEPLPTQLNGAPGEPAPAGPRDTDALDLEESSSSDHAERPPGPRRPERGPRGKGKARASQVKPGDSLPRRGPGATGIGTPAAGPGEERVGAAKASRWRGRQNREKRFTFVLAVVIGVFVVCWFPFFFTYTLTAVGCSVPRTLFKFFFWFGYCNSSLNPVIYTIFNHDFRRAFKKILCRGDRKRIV

[2] = target: Beta-1 adrenergic receptor (Homo sapiens, UniProt P08588); format: functional
Vasopressin V1a receptor = Vasopressin V1a receptor (Homo sapiens, UniProt P37288)
Vasopressin V2 receptor = Vasopressin V2 receptor (Homo sapiens, UniProt P30518)
B2 bradykinin receptor = target: T2, B2 bradykinin receptor (Homo sapiens, UniProt P30411)
T2 sequence (P30411 whole entry): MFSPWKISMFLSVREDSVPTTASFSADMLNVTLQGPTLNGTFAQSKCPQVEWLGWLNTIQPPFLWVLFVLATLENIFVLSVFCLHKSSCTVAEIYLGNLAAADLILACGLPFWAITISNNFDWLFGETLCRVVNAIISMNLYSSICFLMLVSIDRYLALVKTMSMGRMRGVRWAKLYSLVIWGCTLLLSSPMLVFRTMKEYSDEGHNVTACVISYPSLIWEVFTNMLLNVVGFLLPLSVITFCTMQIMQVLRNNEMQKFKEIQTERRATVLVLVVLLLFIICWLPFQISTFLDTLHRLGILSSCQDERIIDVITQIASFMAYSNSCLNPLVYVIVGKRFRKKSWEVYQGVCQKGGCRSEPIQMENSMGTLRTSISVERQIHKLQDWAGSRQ

Histamine H2 receptor = Histamine H2 receptor (Homo sapiens, UniProt P25021)
[3] = target: T3, 5-hydroxytryptamine receptor 1A (Homo sapiens, UniProt P08908); format: functional, cell-based
T3 sequence (P08908 whole entry): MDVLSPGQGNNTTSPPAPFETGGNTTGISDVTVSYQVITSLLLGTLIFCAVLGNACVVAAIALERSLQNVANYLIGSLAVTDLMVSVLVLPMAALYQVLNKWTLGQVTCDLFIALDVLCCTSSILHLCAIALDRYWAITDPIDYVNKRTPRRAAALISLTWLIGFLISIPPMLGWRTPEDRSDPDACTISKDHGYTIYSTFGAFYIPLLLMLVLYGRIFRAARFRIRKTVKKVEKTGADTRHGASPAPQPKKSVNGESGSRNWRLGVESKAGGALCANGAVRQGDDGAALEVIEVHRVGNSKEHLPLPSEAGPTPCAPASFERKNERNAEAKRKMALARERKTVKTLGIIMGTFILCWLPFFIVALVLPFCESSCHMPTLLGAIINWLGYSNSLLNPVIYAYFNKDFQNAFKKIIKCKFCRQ

[4] = target: 5-hydroxytryptamine receptor 2B (Homo sapiens, UniProt P41595); format: functional, cell-based
Melanocortin receptor 4 = Melanocortin receptor 4 (Homo sapiens, UniProt P32245)
[5] = target: Neurotensin receptor type 1 (Homo sapiens, UniProt P30989)
[6] = target: cGMP-inhibited 3',5'-cyclic phosphodiesterase 3A (Homo sapiens, UniProt Q14432); format: functional
Estrogen receptor = target: T4, Estrogen receptor (Homo sapiens, UniProt P03372)
T4 sequence (P03372 whole entry): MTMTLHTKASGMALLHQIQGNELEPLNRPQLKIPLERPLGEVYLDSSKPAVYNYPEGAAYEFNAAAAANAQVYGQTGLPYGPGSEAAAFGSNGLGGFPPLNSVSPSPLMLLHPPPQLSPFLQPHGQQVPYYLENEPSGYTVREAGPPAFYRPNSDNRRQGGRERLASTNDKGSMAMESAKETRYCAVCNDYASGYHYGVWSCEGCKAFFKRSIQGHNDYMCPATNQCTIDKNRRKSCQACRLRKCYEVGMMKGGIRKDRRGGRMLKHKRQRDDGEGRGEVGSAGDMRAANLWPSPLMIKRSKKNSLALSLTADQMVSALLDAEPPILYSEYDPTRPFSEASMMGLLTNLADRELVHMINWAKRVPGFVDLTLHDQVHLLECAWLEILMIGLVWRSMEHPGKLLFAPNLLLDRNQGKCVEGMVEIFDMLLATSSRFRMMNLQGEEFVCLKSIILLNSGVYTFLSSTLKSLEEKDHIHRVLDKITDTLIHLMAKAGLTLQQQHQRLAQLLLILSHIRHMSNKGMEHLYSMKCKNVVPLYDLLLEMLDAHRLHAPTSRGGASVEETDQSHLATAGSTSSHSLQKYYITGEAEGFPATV

[7] = target: Sodium-dependent serotonin transporter (Homo sapiens, UniProt P31645)
Note: assay procedure not described here.

Sequence of Neurotensin receptor type 1 (P30989 whole entry): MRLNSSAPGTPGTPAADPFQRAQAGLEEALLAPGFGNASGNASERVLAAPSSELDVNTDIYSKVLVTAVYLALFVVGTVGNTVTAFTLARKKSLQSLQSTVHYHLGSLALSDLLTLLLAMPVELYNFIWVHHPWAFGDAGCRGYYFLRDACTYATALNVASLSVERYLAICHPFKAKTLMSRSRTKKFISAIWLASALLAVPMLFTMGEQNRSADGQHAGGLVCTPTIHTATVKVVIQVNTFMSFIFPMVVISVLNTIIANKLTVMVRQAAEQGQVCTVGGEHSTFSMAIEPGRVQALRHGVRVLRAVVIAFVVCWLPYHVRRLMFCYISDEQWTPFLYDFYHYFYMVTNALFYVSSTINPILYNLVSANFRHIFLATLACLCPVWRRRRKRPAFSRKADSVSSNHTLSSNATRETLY
Sequence of 5-hydroxytryptamine receptor 2B (P41595 whole entry): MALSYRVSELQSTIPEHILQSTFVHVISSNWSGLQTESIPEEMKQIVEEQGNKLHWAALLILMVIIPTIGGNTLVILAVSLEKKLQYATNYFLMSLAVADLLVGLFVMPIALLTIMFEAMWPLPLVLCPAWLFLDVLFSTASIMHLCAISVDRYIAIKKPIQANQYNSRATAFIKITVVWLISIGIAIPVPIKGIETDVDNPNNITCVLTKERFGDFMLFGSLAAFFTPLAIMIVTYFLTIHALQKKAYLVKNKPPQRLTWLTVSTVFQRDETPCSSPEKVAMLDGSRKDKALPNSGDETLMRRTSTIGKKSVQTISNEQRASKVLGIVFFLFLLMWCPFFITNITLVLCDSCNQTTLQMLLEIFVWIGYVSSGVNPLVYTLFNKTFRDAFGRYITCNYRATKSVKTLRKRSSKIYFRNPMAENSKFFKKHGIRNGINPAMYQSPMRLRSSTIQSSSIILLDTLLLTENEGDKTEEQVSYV
Sequence of Histamine H2 receptor (P25021 whole entry): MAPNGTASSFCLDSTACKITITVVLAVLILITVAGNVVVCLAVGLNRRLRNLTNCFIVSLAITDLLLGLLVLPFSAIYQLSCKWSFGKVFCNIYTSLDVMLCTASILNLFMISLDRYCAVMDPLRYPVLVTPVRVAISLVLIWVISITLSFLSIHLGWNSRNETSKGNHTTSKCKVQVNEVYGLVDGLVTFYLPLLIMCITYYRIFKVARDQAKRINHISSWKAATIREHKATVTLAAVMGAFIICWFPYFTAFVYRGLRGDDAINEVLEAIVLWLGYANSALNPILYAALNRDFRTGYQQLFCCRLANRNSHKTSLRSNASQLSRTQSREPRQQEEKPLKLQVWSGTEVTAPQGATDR
Sequence of cGMP-inhibited 3',5'-cyclic phosphodiesterase 3A (Q14432 whole entry): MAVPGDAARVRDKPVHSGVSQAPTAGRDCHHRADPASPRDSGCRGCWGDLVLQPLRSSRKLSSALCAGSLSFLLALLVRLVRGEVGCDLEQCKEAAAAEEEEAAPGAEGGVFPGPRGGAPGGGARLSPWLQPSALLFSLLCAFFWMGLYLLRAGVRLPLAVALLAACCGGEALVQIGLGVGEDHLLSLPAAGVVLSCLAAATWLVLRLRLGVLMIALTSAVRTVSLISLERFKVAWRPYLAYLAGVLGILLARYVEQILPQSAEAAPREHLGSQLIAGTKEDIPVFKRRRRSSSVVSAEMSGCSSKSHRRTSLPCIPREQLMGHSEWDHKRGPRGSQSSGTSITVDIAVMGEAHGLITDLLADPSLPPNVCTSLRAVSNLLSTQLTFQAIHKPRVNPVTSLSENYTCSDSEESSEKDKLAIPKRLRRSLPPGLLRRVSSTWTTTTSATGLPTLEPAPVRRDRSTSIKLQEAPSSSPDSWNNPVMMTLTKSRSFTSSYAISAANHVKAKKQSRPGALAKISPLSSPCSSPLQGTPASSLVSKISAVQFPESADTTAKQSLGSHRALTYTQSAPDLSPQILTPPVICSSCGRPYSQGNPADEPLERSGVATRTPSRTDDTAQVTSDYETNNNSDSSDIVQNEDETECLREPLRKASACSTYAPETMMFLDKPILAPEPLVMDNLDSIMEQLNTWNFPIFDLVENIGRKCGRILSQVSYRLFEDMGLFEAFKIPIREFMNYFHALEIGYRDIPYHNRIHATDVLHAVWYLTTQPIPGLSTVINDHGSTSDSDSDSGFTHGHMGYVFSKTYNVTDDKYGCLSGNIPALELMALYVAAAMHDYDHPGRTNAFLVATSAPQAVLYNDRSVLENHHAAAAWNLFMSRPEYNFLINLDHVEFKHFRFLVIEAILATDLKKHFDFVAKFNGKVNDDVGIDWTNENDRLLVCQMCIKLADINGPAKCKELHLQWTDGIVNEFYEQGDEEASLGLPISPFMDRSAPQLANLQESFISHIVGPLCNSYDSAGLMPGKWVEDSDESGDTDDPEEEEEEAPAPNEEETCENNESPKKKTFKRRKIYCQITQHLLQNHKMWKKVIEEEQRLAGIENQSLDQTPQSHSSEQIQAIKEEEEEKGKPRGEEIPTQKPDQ
Sequence of Sodium-dependent serotonin transporter (P31645 whole entry): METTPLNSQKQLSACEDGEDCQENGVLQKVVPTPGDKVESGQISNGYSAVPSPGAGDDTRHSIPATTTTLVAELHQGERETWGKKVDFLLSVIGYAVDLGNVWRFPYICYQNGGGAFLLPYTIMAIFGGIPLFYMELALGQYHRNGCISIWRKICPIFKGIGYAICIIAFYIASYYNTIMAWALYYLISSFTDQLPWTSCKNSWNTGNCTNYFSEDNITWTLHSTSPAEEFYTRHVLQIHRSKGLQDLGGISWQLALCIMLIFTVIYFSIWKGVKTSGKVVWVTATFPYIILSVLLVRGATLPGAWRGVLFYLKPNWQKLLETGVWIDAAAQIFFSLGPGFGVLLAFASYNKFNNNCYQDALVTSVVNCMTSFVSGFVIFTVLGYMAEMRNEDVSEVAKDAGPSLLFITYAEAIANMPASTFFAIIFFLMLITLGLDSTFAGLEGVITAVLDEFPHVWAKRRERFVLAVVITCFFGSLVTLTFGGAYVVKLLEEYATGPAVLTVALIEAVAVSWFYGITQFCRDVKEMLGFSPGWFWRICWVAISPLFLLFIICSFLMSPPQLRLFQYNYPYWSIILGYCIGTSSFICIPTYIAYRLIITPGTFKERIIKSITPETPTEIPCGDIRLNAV
Sequence of Vasopressin V2 receptor (P30518 whole entry): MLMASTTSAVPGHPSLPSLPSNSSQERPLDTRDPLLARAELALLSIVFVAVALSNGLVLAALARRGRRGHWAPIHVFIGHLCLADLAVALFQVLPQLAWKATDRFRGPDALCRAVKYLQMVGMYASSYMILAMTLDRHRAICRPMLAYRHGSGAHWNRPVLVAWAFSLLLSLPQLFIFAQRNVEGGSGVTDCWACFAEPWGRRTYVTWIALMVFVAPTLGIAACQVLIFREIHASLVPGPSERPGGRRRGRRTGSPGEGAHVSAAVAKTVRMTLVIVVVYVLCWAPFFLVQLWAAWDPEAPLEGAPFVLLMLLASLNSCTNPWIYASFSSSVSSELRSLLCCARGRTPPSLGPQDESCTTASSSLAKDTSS
Sequence of Melanocortin receptor 4 (P32245 whole entry): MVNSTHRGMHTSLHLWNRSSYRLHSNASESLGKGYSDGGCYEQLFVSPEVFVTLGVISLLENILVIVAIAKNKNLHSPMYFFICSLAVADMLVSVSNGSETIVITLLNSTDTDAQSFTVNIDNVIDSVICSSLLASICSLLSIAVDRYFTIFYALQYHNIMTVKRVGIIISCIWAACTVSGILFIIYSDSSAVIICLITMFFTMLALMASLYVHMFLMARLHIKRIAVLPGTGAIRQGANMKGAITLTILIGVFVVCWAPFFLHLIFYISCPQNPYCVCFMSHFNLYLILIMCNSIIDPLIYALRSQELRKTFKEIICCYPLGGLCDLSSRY
Sequence of Beta-1 adrenergic receptor (P08588 whole entry): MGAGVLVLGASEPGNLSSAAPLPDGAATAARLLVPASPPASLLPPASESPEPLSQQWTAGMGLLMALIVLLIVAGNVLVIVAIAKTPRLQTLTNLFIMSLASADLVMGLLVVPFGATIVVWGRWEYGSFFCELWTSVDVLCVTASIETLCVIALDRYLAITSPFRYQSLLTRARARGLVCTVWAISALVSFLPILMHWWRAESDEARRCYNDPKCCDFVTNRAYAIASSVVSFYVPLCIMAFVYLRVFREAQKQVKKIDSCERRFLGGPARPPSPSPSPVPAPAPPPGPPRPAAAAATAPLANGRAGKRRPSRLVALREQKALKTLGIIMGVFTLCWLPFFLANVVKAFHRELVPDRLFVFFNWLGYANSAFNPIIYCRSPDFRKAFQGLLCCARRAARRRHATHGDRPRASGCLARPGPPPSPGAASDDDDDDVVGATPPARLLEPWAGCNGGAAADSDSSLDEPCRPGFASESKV
Sequence of Vasopressin V1a receptor (P37288 whole entry): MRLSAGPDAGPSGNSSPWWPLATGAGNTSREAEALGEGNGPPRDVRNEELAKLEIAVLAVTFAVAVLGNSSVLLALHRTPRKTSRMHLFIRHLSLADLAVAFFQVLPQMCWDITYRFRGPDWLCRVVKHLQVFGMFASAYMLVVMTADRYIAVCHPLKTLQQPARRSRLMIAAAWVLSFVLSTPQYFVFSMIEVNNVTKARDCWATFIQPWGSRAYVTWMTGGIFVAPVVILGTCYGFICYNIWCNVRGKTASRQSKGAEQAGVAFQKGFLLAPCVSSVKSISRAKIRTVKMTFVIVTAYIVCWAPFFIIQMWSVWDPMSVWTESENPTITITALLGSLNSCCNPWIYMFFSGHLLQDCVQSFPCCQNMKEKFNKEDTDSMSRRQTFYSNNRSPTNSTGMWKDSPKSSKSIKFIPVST

AC50 [1] [µM] | AC50 [2] [µM] | AC50 (Vasopressin V1a receptor) [µM] | AC50 (Vasopressin V2 receptor) [µM] | AC50 (B2 bradykinin receptor) [µM] | AC50 (Histamine H2 receptor) [µM] | AC50 [3] [µM] | AC50 [4] [µM] | AC50 (Melanocortin receptor 4) [µM] | AC50 [5] [µM] | AC50 [6] [µM] | Compound | AC50 (Estrogen receptor) [µM] | AC50 [7] [µM]
> 30 | > 30 | > 30 | > 30 | > 30 | > 10 | > 30 | 16 | > 10 | > 30 | 13 | CCOc1nc2cccc(C(=O)O)c2n1Cc1ccc(-c2ccccc2-c2nnn[nH]2)cc1 |  | 
 |  |  |  |  |  |  |  |  |  |  | CC[C@@H]1C[C@]1(NC(=O)[C@@H]1C[C@@H]2CN1C(=O)[C@H](C(C)(C)C)NC(=O)OCC(C)(C)CCCCc1cccc3c1CN(C3)C(=O)O2)C(=O)NS(=O)(=O)C1CC1 | > 30 | > 30
 |  |  |  |  |  |  |  |  |  |  | CC(=O)NCCCCCC(=O)O [ACEXAMIC ACID] | > 30 | > 30
 |  |  |  |  |  |  |  |  |  |  | C=C(C)CNc1ccc(C(C)C(=O)O)cc1 (stereo not drawn) [ALMINOPROFEN] | > 30 | > 30
 |  |  |  |  |  |  |  |  |  |  | C[C@H]1CN(C[C@H](Cc2ccccc2)C(=O)NCC(=O)O)CC[C@@]1(C)c1cccc(O)c1 [ALVIMOPAN] | > 30 | > 30
> 10 | > 10 | > 30 | > 30 | > 30 |  | > 10 | > 10 | > 30 | > 30 | > 30 | CCCNC(=O)NS(=O)(=O)c1ccc(Cl)cc1 [CHLORPROPAMIDE] |  | 
> 30 | > 30 | > 30 | > 30 | > 30 | > 10 | > 30 | 6.3 | > 30 |  | > 30 | Cc1nc(Nc2ncc(C(=O)Nc3c(C)cccc3Cl)s2)cc(N2CCN(CCO)CC2)n1 [DASATINIB] |  | 
 |  |  |  |  |  |  |  |  |  |  | C[C@H]1O[C@@H](O[C@H]2CC[C@@]3(C)[C@H](CC[C@@H]4[C@@H]3C[C@@H](O)[C@]3(C)[C@@H](C5=CC(=O)OC5)CC[C@]43O)C2)C[C@H](O)[C@@H]1O[C@H]1C[C@H](O)[C@H](O[C@H]2C[C@H](O)[C@H](O[C@@H]3O[C@H](CO)[C@@H](O)[C@H](O)[C@H]3O)[C@@H](C)O2)[C@@H](C)O1 [DESLANOSIDE] | > 30 | > 30
 |  |  |  |  |  |  |  |  |  |  | CC(C)C(=O)Oc1ccc(CO)cc1[C@H](CCN(C(C)C)C(C)C)c1ccccc1 [FESOTERODINE] | > 30 | > 30
 |  |  |  |  |  |  |  |  |  |  | CCCCC(CC)CN1CN(CC(CC)CCCC)CC(C)(N)C1 (stereo not drawn) [HEXETIDINE] | > 30 | 6.51
 |  |  |  |  |  |  |  |  |  |  | Cc1cc(=O)oc2cc(O)ccc12 [HYMECROMONE] | > 30 | > 30
> 10 | > 10 | > 10 | > 30 | > 30 | > 10 | > 10 | 23 | > 30 | > 30 | > 30 | CC[C@H](C)C(=O)O[C@H]1C[C@@H](C)C=C2C=C[C@H](C)[C@H](CC[C@@H]3C[C@@H](O)CC(=O)O3)[C@H]21 [LOVASTATIN] |  | 
 |  |  |  |  |  |  |  |  |  |  | C[N+]1(C)CCCC(OC(=O)C(O)(c2ccccc2)c2ccccc2)C1 (stereo not drawn) [MEPENZOLATE] | > 30 | 20.4

Compound | AC50 [1] [µM] | AC50 [2] [µM] | AC50 (Vasopressin V1a receptor) [µM] | AC50 (Vasopressin V2 receptor) [µM] | AC50 (B2 bradykinin receptor) [µM] | AC50 (Histamine H2 receptor) [µM] | AC50 [3] [µM] | AC50 [4] [µM] | AC50 (Melanocortin receptor 4) [µM] | AC50 [5] [µM] | AC50 [6] [µM] | AC50 (Estrogen receptor) [µM] | AC50 [7] [µM]
CCCc1nc2c(C)cc(-c3nc4ccccc4n3C)cc2n1Cc1ccc(-c2ccccc2C(=O)O)cc1 | > 30 | > 30 | > 30 | > 30 | > 30 | > 10 | > 30 | 6.33 | > 30 | > 30 | > 30 | > 30 | 
O=C(O)Cc1ccccc1Nc1c(Cl)cccc1Cl [DICLOFENAC] | > 10 | > 10 | > 30 | > 30 | > 30 | > 10 | > 10 | > 10 | > 30 | > 30 | > 30 |  | 
